The source of these data is patent publication US8946296B2, “Substituted heteroaryl- and aryl-cyclopropylamine acetamides and their use” (Oryzon Genomics S.A., priority 2009, dated 2015).

pKi: −log10 of the molar value. Structures can show the parent of a compound that is named as a salt.

In experiment [1] the target is LSD1 (Homo sapiens, UniProt O60341). The experiment in a line: LSD1 inhibition assay (Amplex Red peroxide/peroxidase-coupled, di-methylated H3-K4 peptide substrate).
The target in experiment [2] is T1, MAO-B (Homo sapiens, UniProt P27338).
T1 construct: purchased Sigma Aldrich
T1 sequence (P27338 1-520): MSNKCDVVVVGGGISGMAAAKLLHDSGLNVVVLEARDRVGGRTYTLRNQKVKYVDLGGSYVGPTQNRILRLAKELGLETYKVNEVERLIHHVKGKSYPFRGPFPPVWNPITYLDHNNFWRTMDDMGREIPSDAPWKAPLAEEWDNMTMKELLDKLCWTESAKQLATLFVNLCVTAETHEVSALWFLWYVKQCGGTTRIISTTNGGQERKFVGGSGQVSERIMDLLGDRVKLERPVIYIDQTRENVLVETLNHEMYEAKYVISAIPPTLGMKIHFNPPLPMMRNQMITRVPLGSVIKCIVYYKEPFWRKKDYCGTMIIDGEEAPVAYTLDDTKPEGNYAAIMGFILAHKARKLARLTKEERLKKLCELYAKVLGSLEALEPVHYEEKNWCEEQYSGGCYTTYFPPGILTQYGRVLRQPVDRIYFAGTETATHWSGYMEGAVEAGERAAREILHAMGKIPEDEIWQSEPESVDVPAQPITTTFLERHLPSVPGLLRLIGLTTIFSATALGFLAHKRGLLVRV
As to the kind of experiment: Monoamine oxidase assay, MAO-B (kynuramine to 4-hydroxyquinoline fluorescence). The class given is biochemical. Conditions: Ki (IC50) range class; human recombinant MAO-B, kynuramine substrate.
Source text: (§1) Human recombinant monoamine oxidase proteins MAO-A and MAO-B were purchased from Sigma Aldrich. […] In order to monitor MAO enzymatic activities and/or their inhibition rate by inhibitor(s) of interest, a fluorescent-based (inhibitor)-screening assay was set up. 3-(2-Aminophenyl)-3-oxopropanamine (kynuramine dihydrobromide, Sigma Aldrich), a non fluorescent compound was chosen as a substrate. Kynuramine is a non-specific substrate for both MAOs activities. While undergoing oxidative deamination by MAO activities, kynuramine is converted into 4-hydroxyquinoline (4-HQ), a resulting fluorescent product.
(§2) The monoamine oxidase activity was estimated by measuring the conversion of kynuramine into 4-hydroxyquinoline. Assays were conducted in 96-well black plates with clear bottom (Corning) in a final volume of 100 μL. The assay buffer was 100 mM HEPES, pH 7.5. Each experiment was performed in triplicate within the same experiment.
(§3) The oxidative deamination of the substrate was stopped by adding 50 μL (v/v) of NaOH 2N.
(§4) The Ki of each inhibitor was measure at Vmax/2.

In experiment [3] the target is T2, MAO-A (Homo sapiens, UniProt P21397).
T2 construct: purchased Sigma Aldrich
T2 sequence (P21397 1-527): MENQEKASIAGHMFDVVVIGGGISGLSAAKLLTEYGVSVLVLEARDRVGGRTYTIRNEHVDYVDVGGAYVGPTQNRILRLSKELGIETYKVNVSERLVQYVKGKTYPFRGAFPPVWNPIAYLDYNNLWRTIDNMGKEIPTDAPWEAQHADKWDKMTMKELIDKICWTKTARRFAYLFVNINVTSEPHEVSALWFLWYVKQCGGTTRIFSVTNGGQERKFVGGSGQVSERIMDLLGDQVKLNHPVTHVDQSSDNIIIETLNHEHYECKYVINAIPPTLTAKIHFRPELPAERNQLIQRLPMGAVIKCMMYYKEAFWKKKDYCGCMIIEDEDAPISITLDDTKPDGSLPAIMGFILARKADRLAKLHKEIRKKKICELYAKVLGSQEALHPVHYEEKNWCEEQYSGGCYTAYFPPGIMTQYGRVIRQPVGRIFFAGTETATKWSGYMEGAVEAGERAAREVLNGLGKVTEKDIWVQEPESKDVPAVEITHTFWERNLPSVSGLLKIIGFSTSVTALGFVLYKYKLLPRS
As to the kind of experiment: Monoamine oxidase assay, MAO-A (kynuramine to 4-hydroxyquinoline fluorescence). The conditions noted are these: Ki (IC50) range class; human recombinant MAO-A, kynuramine substrate. Format: biochemical.
Source text: as §1, §2, §3, §4

What is called pKi is the Ki on a negative log10 scale, so that one unit is a factor of ten. Take `N#Cc1ccc(COc2ccc([C@@H]3C[C@H]3NCC(N)=O)cc2)cc1` (relative stereo) [Example 1, 2-((trans)-2-(4-(4-cyanobenzyloxy)phenyl)cyclopropylamino)acetamide hydrochloride]: the figures for the pKi in experiment [1], in experiment [2] and in experiment [3] were 7.00 to 8.00, 6.30 to 7.00 and 4.40 to 5.30, respectively.

With `NC(=O)CN[C@@H]1C[C@H]1c1ccc(OCc2ccccc2)cc1` (relative stereo) [Example 3, 2-((trans)-2-(4-(benzyloxy)phenyl)cyclopropylamino)acetamide], the values for the pKi in experiment [1], in experiment [2] and in experiment [3] were 6.30 to 7.00, 6.30 to 7.00 and 4.40 to 5.30, respectively.

Take `NC(=O)CN[C@@H]1C[C@H]1c1ccc(-c2cccc(C(F)(F)F)c2)cc1` (relative stereo) [Example 11, 2-((trans)-2-(3′-(trifluoromethyl)biphenyl-4-yl)cyclopropylamino)acetamide]: the negative-log Ki (pKi) in experiment [1] was 6.30 to 7.00; in experiment [2], 6.30 to 7.00; in experiment [3], 4.40 to 5.30.

For the compound `NC(=O)CN[C@@H]1C[C@H]1c1ccc(-c2ccc(Cl)cc2)nc1` (relative stereo) [Example 20, 2-((trans)-2-(6-(4-chlorophenyl)pyridin-3-yl)cyclopropylamino)acetamide], the pKi in experiment [1] is 7.00 to 8.00; in experiment [2], 5.30 to 6.30; in experiment [3], 5.30 to 6.30.

For `NC(=O)CN[C@@H]1C[C@H]1c1ccc(OCc2cccc(F)c2)cc1` (relative stereo) [Example 5, 2-((trans)-2-(4-(3-fluorobenzyloxy)phenyl)cyclopropylamino)acetamide hydrochloride], the pKi in experiment [1] was 7.00 to 8.00; in experiment [2], 6.30 to 7.00; in experiment [3] it was 4.40 to 5.30.

Regarding `NC(=O)CN[C@@H]1C[C@H]1c1ccc(OCc2ccc(Cl)cc2)cc1` (relative stereo) [Example 7, 2-((trans)-2-(4-(4-chlorobenzyloxy)phenyl)cyclopropylamino)acetamide hydrochloride], the figures for the pKi in experiment [1], in experiment [2] and in experiment [3] were 6.30 to 7.00, 6.30 to 7.00 and under 4.40, respectively.

Take `NC(=O)CN[C@@H]1C[C@H]1c1ccc(OCc2cc(F)cc(F)c2)cc1` (relative stereo) [Example 9, 2((trans)-2-(4-(3,5-difluorobenzyloxy)phenyl)cyclopropylamino)acetamide]: the pKi in experiment [1] is 7.00 to 8.00; in experiment [2], 6.30 to 7.00; in experiment [3], 4.40 to 5.30.

Consider `NC(=O)CN[C@@H]1C[C@H]1c1ccc(OCCc2ccccc2)cc1` (relative stereo) [Example 10, 2-((trans)-2-(4-phenethoxyphenyl)cyclopropylamino)acetamide], for which the pKi in experiment [1] is 7.00 to 8.00; in experiment [2], 6.30 to 7.00; in experiment [3] it was 4.40 to 5.30.

For the compound `NC(=O)CN[C@@H]1C[C@H]1c1ccc(OCc2cccc(Cl)c2)cc1` (relative stereo) [Example 6, 2-((trans)-2-(4-(3-chlorobenzyloxy)phenyl)cyclopropylamino)acetamide hydrochloride], the results for the pKi in experiment [1], in experiment [2] and in experiment [3] were 7.00 to 8.00, 6.30 to 7.00 and under 4.40, respectively.

On to `NC(=O)CN[C@@H]1C[C@H]1c1ccc(OCc2ccc(F)cc2)cc1` (relative stereo) [Example 4, 2-((trans)-2-(4-(4-fluorobenzyloxy)phenyl)cyclopropylamino)acetamide hydrochloride], for which the pKi is 6.30 to 7.00 in experiment [1], 6.30 to 7.00 in experiment [2] and under 4.40 in experiment [3].

As to `N#Cc1cccc(COc2ccc([C@@H]3C[C@H]3NCC(N)=O)cc2)c1` (relative stereo) [Example 2, 2-((trans)-2-(4-(3-cyanobenzyloxy)phenyl)cyclopropylamino)acetamide hydrochloride], the pKi in experiment [1] is 7.00 to 8.00; in experiment [2], 6.30 to 7.00; in experiment [3], 5.30 to 6.30.

Regarding `NC(=O)CN[C@@H]1C[C@H]1c1ccc(OCc2cccc(Br)c2)cc1` (relative stereo) [Example 8, 2-((trans)-2-(4-(3-bromobenzyloxy)phenyl)cyclopropylamino)acetamide], the pKi in experiment [1] is 7.00 to 8.00; in experiment [2], 6.30 to 7.00; in experiment [3], 4.40 to 5.30.

Consider `NC(=O)CN[C@H]1C[C@@H]1c1ccc(-c2ccc(-c3ccccc3)cc2)cc1` (stereo in doubt) [Example 12, 2-(2-[1,1′;4′,1″]Terphenyl-4″-yl-cyclopropylamino)acetamide], for which the values for the pKi in experiment [1], in experiment [2] and in experiment [3] were 6.30 to 7.00, 6.30 to 7.00 and under 4.40, respectively.
